# According to patent publication US20060193786A1, “Pharmaceutical composition for intranasal administration containing a CGRP antagonist” (Boehringer Ingelheim Pharma GmbH & Co. KG, priority 2002, published 2006):
# Experiment: Stability testing of more highly concentrated nasal spray solutions
# Format: physicochemical
# Conditions: for content of active substance (A): as free base
# Procedure: Stability testing of more highly concentrated nasal spray solutions according to the invention:
# The total decomposition which is high in some circumstances (particularly at 40° C.) is based on hydrolysis.
# The content of active substance (A) given in Table 1 refers in each case to the free base originally weighed out.
# [1] = active substance concentration 15, 3-month value, 25° C.
# [2] = active substance concentration 15, 3-month value, 40° C.
# [3] = active substance concentration 15, 6-month value, 25° C.
# [4] = active substance concentration 15, 6-month value, 40° C.
# [5] = active substance concentration 15, 6-week value, 25° C.
# [6] = active substance concentration 15, 6-week value, 40° C.
# [7] = active substance concentration 15, initial value
# [8] = active substance concentration 20%, 3-month value, 25° C.
# [9] = active substance concentration 20%, 3-month value, 40° C.
# [10] = active substance concentration 20%, 6-month value, 25° C.
# [11] = active substance concentration 20%, 6-month value, 40° C.
# [12] = active substance concentration 20%, 6-week value, 25° C.
# [13] = active substance concentration 20%, 6-week value, 40° C.
# [14] = active substance concentration 20%, initial value
# [15] = active substance concentration 30%, 3-month value, 25° C.
# [16] = active substance concentration 30%, 3-month value, 40° C.
# [17] = active substance concentration 30%, 6-month value, 25° C.
# [18] = active substance concentration 30%, 6-month value, 40° C.
# [19] = active substance concentration 30%, 6-week value, 25° C.
# [20] = active substance concentration 30%, 6-week value, 40° C.
# [21] = active substance concentration 30%, initial value
compound,measurement,setting,value
"NCCCC[C@H](NC(=O)[C@@H](Cc1cc(Br)c(O)c(Br)c1)NC(=O)N1CCC(N2Cc3ccccc3NC2=O)CC1)C(=O)N1CCN(c2ccncc2)CC1 [(A), 1-[N^2-[3,5-dibromo-N-[[4-(3,4-dihydro-2(1H)-oxoquinazolin-3-yl)-1-piperidinyl]carbonyl]-D-tyrosyl]-L-lysyl]-4-(4-pyridinyl)-piperazine]",decomposition by oxidation,[1],0.64%
same,overall decomposition,[1],1.69%
same,content of active substance (A),[1],147.7 mg/mL
same,decomposition by oxidation,[2],0.55%
same,overall decomposition,[2],8.22%
same,content of active substance (A),[2],139.4 mg/mL
same,decomposition by oxidation,[3],0.82%
same,overall decomposition,[3],2.07%
same,content of active substance (A),[3],147.7 mg/mL
same,decomposition by oxidation,[4],0.78%
same,overall decomposition,[4],15.33%
same,content of active substance (A),[4],131.7 mg/mL
same,decomposition by oxidation,[5],0.72%
same,overall decomposition,[5],1.60%
same,content of active substance (A),[5],148.1 mg/mL
same,decomposition by oxidation,[6],0.52%
same,overall decomposition,[6],4.46%
same,content of active substance (A),[6],142.3 mg/mL
same,decomposition by oxidation,[7],0.59%
same,overall decomposition,[7],1.23%
same,content of active substance (A),[7],148.6 mg/mL
same,decomposition by oxidation,[8],0.53%
same,overall decomposition,[8],1.50%
same,content of active substance (A),[8],202.8 mg/mL
same,decomposition by oxidation,[9],0.47%
same,overall decomposition,[9],8.23%
same,content of active substance (A),[9],191.4 mg/mL
same,decomposition by oxidation,[10],0.77%
same,overall decomposition,[10],1.99%
same,content of active substance (A),[10],202 mg/mL
same,decomposition by oxidation,[11],0.74%
same,overall decomposition,[11],14.61%
same,content of active substance (A),[11],182.8 mg/mL
same,decomposition by oxidation,[12],0.54%
same,overall decomposition,[12],1.09%
same,content of active substance (A),[12],198.7 mg/mL
same,decomposition by oxidation,[13],0.55%
same,overall decomposition,[13],3.97%
same,content of active substance (A),[13],192.1 mg/mL
same,decomposition by oxidation,[14],0.56%
same,overall decomposition,[14],1.27%
same,content of active substance (A),[14],197.9 mg/mL
same,decomposition by oxidation,[15],0.60%
same,overall decomposition,[15],1.48%
same,content of active substance (A),[15],270 mg/mL
same,decomposition by oxidation,[16],0.59%
same,overall decomposition,[16],7.81%
same,content of active substance (A),[16],260 mg/mL
same,decomposition by oxidation,[17],0.91%
same,overall decomposition,[17],2.04%
same,content of active substance (A),[17],273 mg/mL
same,decomposition by oxidation,[18],0.84%
same,overall decomposition,[18],13.36%
same,content of active substance (A),[18],246 mg/mL
same,decomposition by oxidation,[19],0.62%
same,overall decomposition,[19],1.19%
same,content of active substance (A),[19],264 mg/mL
same,decomposition by oxidation,[20],0.58%
same,overall decomposition,[20],3.95%
same,content of active substance (A),[20],260 mg/mL
same,decomposition by oxidation,[21],0.56%
same,overall decomposition,[21],1.20%
same,content of active substance (A),[21],269 mg/mL
same,oxidative decomposition,"hydrochloride in aqueous solution, over a long period",virtually unchanged or increases only slightly
